According to paper PMC3376857 (2012):

Biological target: HDAC1 (Homo sapiens, UniProt Q13547)
Sequence (Q13547 whole entry): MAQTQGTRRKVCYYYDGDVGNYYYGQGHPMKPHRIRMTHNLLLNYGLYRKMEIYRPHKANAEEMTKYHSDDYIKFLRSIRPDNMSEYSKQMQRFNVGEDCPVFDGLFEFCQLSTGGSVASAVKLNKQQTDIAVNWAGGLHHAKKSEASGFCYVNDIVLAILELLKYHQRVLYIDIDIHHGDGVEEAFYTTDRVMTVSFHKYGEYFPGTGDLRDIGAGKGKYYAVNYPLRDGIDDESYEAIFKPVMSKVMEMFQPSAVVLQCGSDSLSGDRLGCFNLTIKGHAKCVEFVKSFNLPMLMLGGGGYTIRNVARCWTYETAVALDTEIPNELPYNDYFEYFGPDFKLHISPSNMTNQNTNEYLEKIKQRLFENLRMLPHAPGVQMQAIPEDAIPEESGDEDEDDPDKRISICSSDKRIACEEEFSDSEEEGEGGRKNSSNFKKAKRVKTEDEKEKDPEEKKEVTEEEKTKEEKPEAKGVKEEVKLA

- deacetylase assay with immunopurified Flag-HDAC1 and acetylated p53 protein: 1 µM
Compound: CC(/C=C/C(=O)NO)=C\[C@@H](C)C(=O)c1ccc(N(C)C)cc1 [TSA, trichostatin A]
